The values that follow come from patent US11229623B2 (GlaxoSmithKline Intellectual Property (No.2) Limited, priority 2016, dated 2022).

pIC50: −log10 of the molar value.

T1 sequence (Q9HBA0 whole entry): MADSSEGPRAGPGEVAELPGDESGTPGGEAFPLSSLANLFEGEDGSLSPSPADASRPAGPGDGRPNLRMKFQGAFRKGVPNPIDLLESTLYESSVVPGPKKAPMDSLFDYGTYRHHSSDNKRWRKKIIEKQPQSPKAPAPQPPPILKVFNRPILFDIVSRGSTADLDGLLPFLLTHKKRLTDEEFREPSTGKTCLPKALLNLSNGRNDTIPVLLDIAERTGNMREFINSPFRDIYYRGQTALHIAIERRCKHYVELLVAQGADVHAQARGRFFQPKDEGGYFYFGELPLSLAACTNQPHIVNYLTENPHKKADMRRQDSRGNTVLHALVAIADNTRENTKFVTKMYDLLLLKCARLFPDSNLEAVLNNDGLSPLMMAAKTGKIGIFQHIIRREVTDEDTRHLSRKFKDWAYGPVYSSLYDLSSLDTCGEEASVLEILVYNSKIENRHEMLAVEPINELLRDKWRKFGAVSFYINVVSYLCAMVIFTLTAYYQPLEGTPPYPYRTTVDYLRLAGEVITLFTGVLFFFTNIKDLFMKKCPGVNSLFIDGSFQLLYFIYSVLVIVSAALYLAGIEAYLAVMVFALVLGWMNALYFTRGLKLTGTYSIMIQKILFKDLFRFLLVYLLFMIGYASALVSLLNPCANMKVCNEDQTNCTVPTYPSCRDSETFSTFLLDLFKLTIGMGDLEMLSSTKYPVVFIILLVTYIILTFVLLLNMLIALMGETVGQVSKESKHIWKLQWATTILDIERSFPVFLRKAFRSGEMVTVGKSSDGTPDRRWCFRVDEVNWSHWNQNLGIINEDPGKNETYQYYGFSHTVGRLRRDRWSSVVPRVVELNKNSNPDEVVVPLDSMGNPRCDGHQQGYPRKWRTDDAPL

This test concerns the target T1, human TRPV4 (Homo sapiens, UniProt Q9HBA0).
T1 construct: expressed in transfected cells; host or cells: BHK/AC9 cells transduced with BacMam virus
The test is described as follows: FLIPR assay for hTRPV4 expressed in BHK cells: inhibition of Agonist Compound-induced calcium signal. In kind it is cell-based. Conditions: hTRPV4 in BHK/AC9 cells, FLIPR calcium signal, agonist at EC80; reported as range class; read-out: IC50. Summed up: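 Calcium influx through TRPV4 tracked by Fluo-4 fluorescence on FLIPR. Cells: BHK/AC9 transduced with BacMam-hTRPV4 at MOI 78, 24 h culture post-plating (15,000 cells/well). Dye loading: 2 μM Fluo-4 AM with 500 μM Brilliant Black quencher, 1-1.5 h, room temperature, dark.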
For `N#Cc1ccc(S(=O)(=O)N2C[C@H](Oc3ccc(Cl)cc3)[C@](O)(CO)C2)c(Br)c1` [Example 108, 3-bromo-4-(((3R,4S)-4-(4-chlorophenoxy)-3-hydroxy-3-(hydroxymethyl)pyrrolidin-1-yl)sulfonyl)benzonitrile], the pIC50 was 8.00 to 10.00.
For `N#Cc1ccc(S(=O)(=O)N2C[C@H](Oc3ccc(Cl)cc3)[C@](O)(CO)C2)cn1` [Example 109, 5-(((3R,4S)-4-(4-chlorophenoxy)-3-hydroxy-3-(hydroxymethyl)pyrrolidin-1-yl)sulfonyl)picolinonitrile] the value was 7.00 to 8.00; for `N#Cc1ncccc1S(=O)(=O)N1C[C@H](Oc2ccc(Cl)cc2)[C@](O)(CO)C1` [Example 110, 3-(((3R,4S)-4-(4-chlorophenoxy)-3-hydroxy-3-(hydroxymethyl)pyrrolidin-1-yl)sulfonyl)picolinonitrile], 7.00 to 8.00; for `N#Cc1ccc(O[C@H]2CN(S(=O)(=O)c3ccc(CC(F)(F)F)cc3)C[C@@]2(O)CO)cc1F` [Example 111, 2-fluoro-4-(((3S,4R)-4-hydroxy-4-(hydroxymethyl)-1-((4-(2,2,2-trifluoroethyl)phenyl)sulfonyl)pyrrolidin-3-yl)oxy)benzonitrile], 7.00 to 8.00.
As for `N#Cc1ccc(O[C@H]2CN(S(=O)(=O)c3ccc(C(F)(F)F)s3)C[C@@]2(O)CO)cc1F` [Example 112, 2-fluoro-4-(((3S,4R)-4-hydroxy-4-(hydroxymethyl)-1-((5-(trifluoromethyl)thiophen-2-yl)sulfonyl)pyrrolidin-3-yl)oxy)benzonitrile], the pIC50 is 7.00 to 8.00.
Then `N#Cc1ccc(S(=O)(=O)N2C[C@H](Oc3ccc(C#N)c(F)c3)[C@](O)(CO)C2)c(F)c1` [Example 113, 4-(((3S,4R)-1-((4-cyano-2-fluorophenyl)sulfonyl)-4-hydroxy-4-(hydroxymethyl)pyrrolidin-3-yl)oxy)-2-fluorobenzonitrile], with 8.00 to 10.00; and `N#Cc1ccc(O[C@H]2CN(S(=O)(=O)c3ccc(I)cc3C#N)C[C@@]2(O)CO)cc1F` [Example 114, 4-(((3S,4R)-1-((2-cyano-4-iodophenyl)sulfonyl)-4-hydroxy-4-(hydroxymethyl)pyrrolidin-3-yl)oxy)-2-fluorobenzonitrile], with 8.00 to 10.00; and `N#Cc1ccc(O[C@H]2CN(S(=O)(=O)c3ccc(I)cc3Cl)C[C@@]2(O)CO)cc1F` [Example 115, 4-(((3S,4R)-1-((2-chloro-4-iodophenyl)sulfonyl)-4-hydroxy-4-(hydroxymethyl)pyrrolidin-3-yl)oxy)-2-fluorobenzonitrile], with 8.00 to 10.00.
Then `N#Cc1ccc(O[C@H]2CN(S(=O)(=O)c3ccc(C(F)(F)F)c(F)c3)C[C@@]2(O)CO)cc1F` [Example 116, 2-fluoro-4-(((3S,4R)-1-((3-fluoro-4-(trifluoromethyl)phenyl)sulfonyl)-4-hydroxy-4-(hydroxymethyl)pyrrolidin-3-yl)oxy)benzonitrile], with 7.00 to 8.00; and `N#Cc1ccc(O[C@H]2CN(S(=O)(=O)c3ccccc3Br)C[C@@]2(O)CO)cc1F` [Example 117, 4-(((3S,4R)-1-((2-bromophenyl)sulfonyl)-4-hydroxy-4-(hydroxymethyl)pyrrolidin-3-yl)oxy)-2-fluorobenzonitrile], with 7.00 to 8.00; and `Cc1ccc(S(=O)(=O)N2C[C@H](Oc3ccc(C#N)c(F)c3)[C@](O)(CO)C2)cc1F` [Example 118, 2-fluoro-4-(((3S,4R)-1-((3-fluoro-4-methylphenyl)sulfonyl)-4-hydroxy-4-(hydroxymethyl)pyrrolidin-3-yl)oxy)benzonitrile], with 7.00 to 8.00.
As to `N#Cc1ccc(O[C@H]2CN(S(=O)(=O)c3ccccc3I)C[C@@]2(O)CO)cc1F` [Example 119, 2-fluoro-4-(((3S,4R)-4-hydroxy-4-(hydroxymethyl)-1-((2-iodophenyl)sulfonyl)pyrrolidin-3-yl)oxy)benzonitrile], the pIC50 is 8.00 to 10.00.
For the molecule `N#Cc1ccc(O[C@H]2CN(S(=O)(=O)c3ccc(Cl)cc3Br)C[C@@]2(O)CO)cc1F` [Example 120, 4-(((3S,4R)-1-((2-bromo-4-chlorophenyl)sulfonyl)-4-hydroxy-4-(hydroxymethyl)pyrrolidin-3-yl)oxy)-2-fluorobenzonitrile], the pIC50 was 8.00 to 10.00.
On to `N#Cc1ccc(O[C@H]2CN(S(=O)(=O)c3ccc(Br)cc3C(F)(F)F)C[C@@]2(O)CO)cc1F` [Example 121, 4-(((3S,4R)-1-((4-bromo-2-(trifluoromethyl)phenyl)sulfonyl)-4-hydroxy-4-(hydroxymethyl)pyrrolidin-3-yl)oxy)-2-fluorobenzonitrile], for which the pIC50 was 7.00 to 8.00.
For the molecule `N#Cc1ccc(O[C@H]2CN(S(=O)(=O)c3cccnc3OC(F)F)C[C@@]2(O)CO)cc1F` [Example 122, 4-(((3S,4R)-1-((2-(difluoromethoxy)pyridin-3-yl)sulfonyl)-4-hydroxy-4-(hydroxymethyl)pyrrolidin-3-yl)oxy)-2-fluorobenzonitrile], the pIC50 was 8.00 to 10.00.
As to `Cn1ncc(Br)c1S(=O)(=O)N1C[C@H](Oc2ccc(C#N)c(F)c2)[C@](O)(CO)C1` [Example 123, 4-(((3S,4R)-1-((4-bromo-1-methyl-1H-pyrazol-5-yl)sulfonyl)-4-hydroxy-4-(hydroxymethyl)pyrrolidin-3-yl)oxy)-2-fluorobenzonitrile], the pIC50 was 7.00 to 8.00.
For `Cc1nn(C)c(S(=O)(=O)N2C[C@H](Oc3ccc(C#N)c(F)c3)[C@](O)(CO)C2)c1Cl` [Example 124, 4-(((3S,4R)-1-((4-chloro-1,3-dimethyl-1H-pyrazol-5-yl)sulfonyl)-4-hydroxy-4-(hydroxymethyl)pyrrolidin-3-yl)oxy)-2-fluorobenzonitrile], the pIC50 is 6.00 to 7.00.
In the case of `O=S(=O)(c1ccc(C(F)(F)F)cc1F)N1C[C@H](Oc2ccc3nonc3c2)[C@](O)(CO)C1` [Example 125, (3R,4S)-4-(benzo[c][1,2,5]oxadiazol-5-yloxy)-1-((2-fluoro-4-(trifluoromethyl)phenyl)sulfonyl)-3-(hydroxymethyl)pyrrolidin-3-ol], the pIC50 was 7.00 to 8.00.
Take `N#Cc1ccc(O[C@H]2CN(S(=O)(=O)c3ccc(OC(F)F)nc3)C[C@@]2(O)CO)cc1F` [Example 126, 4-(((3S,4R)-1-((6-(difluoromethoxy)pyridin-3-yl)sulfonyl)-4-hydroxy-4-(hydroxymethyl)pyrrolidin-3-yl)oxy)-2-fluorobenzonitrile]: the pIC50 was 6.00 to 7.00.
For `N#Cc1ccc(O[C@H]2CN(S(=O)(=O)c3ccc(OC(F)(F)F)cn3)C[C@@]2(O)CO)cc1F` [Example 127, 2-fluoro-4-(((3S,4R)-4-hydroxy-4-(hydroxymethyl)-1-((5-(trifluoromethoxy)pyridin-2-yl)sulfonyl)pyrrolidin-3-yl)oxy)benzonitrile] the value was 6.00 to 7.00; for `N#Cc1ccc(O[C@H]2CN(S(=O)(=O)c3cnc(C(F)(F)F)nc3)C[C@@]2(O)CO)cc1F` [Example 128, 2-fluoro-4-(((3S,4R)-4-hydroxy-4-(hydroxymethyl)-1-((2-(trifluoromethyl)pyrimidin-5-yl)sulfonyl)pyrrolidin-3-yl)oxy)benzonitrile], 6.00 to 7.00; for `N#Cc1ccc(O[C@H]2CN(S(=O)(=O)c3ccc(Cl)c(OC(F)(F)F)c3)C[C@@]2(O)CO)cc1F` [Example 129, 4-(((3S,4R)-1-((4-chloro-3-(trifluoromethoxy)phenyl)sulfonyl)-4-hydroxy-4-(hydroxymethyl)pyrrolidin-3-yl)oxy)-2-fluorobenzonitrile], 7.00 to 8.00.
Take `N#Cc1ccc(O[C@H]2CN(S(=O)(=O)c3ccc(I)cn3)C[C@@]2(O)CO)cc1F` [Example 130, 2-fluoro-4-(((3S,4R)-4-hydroxy-4-(hydroxymethyl)-1-((5-iodopyridin-2-yl)sulfonyl)pyrrolidin-3-yl)oxy)benzonitrile]: the pIC50 was 7.00 to 8.00.
With `Cc1nc(C#N)ccc1S(=O)(=O)N1C[C@H](Oc2ccc(C#N)c(F)c2)[C@](O)(CO)C1` [Example 131, 5-(((3R,4S)-4-(4-cyano-3-fluorophenoxy)-3-hydroxy-3-(hydroxymethyl)pyrrolidin-1-yl)sulfonyl)-6-methylpicolinonitrile], the pIC50 is 7.00 to 8.00.
Consider `N#Cc1ccc(O[C@H]2CN(S(=O)(=O)c3cccc(OC(F)(F)F)n3)C[C@@]2(O)CO)cc1F` [Example 132, 2-fluoro-4-(((3S,4R)-4-hydroxy-4-(hydroxymethyl)-1-((6-(trifluoromethoxy)pyridin-2-yl)sulfonyl)pyrrolidin-3-yl)oxy)benzonitrile], for which the negative logarithm of the IC50 (pIC50) is 7.00 to 8.00.
Consider `N#Cc1ccc(O[C@H]2CN(S(=O)(=O)c3ccc(OCC(F)(F)F)nn3)C[C@@]2(O)CO)cc1F` [Example 133, 2-fluoro-4-(((3S,4R)-4-hydroxy-4-(hydroxymethyl)-1-((6-(2,2,2-trifluoroethoxy)pyridazin-3-yl)sulfonyl)pyrrolidin-3-yl)oxy)benzonitrile], for which the pIC50 is 7.00 to 8.00.
Take `N#Cc1ccc(O[C@H]2CN(S(=O)(=O)c3cccc(OC(F)F)n3)C[C@@]2(O)CO)cc1F` [Example 134, 4-(((3S,4R)-1-((6-(difluoromethoxy)pyridin-2-yl)sulfonyl)-4-hydroxy-4-(hydroxymethyl)pyrrolidin-3-yl)oxy)-2-fluorobenzonitrile]: the pIC50 is 7.00 to 8.00.
As to `N#Cc1ccc(O[C@H]2CN(S(=O)(=O)c3ccc(C(F)(F)F)cc3C#N)C[C@]2(O)CO)cc1F` [Example 135, 4-(((3S,4S)-1-((2-cyano-4-(trifluoromethyl)phenyl)sulfonyl)-4-hydroxy-4-(hydroxymethyl)pyrrolidin-3-yl)oxy)-2-fluorobenzonitrile], the negative-log IC50 (pIC50) was 8.00 to 10.00.
Take `N#Cc1ccc(O[C@H]2CN(S(=O)(=O)c3ccc(Cl)cn3)C[C@]2(O)CO)cc1F` [Example 136, 4-(((3S,4S)-1-((5-chloropyridin-2-yl)sulfonyl)-4-hydroxy-4-(hydroxymethyl)pyrrolidin-3-yl)oxy)-2-fluorobenzonitrile]: the pIC50 is 6.00 to 7.00.
